From ChEMBL document CHEMBL4725265, “Short chain α-pyrones capable of potentiating penicillin G against Pseudomonas aeruginosa” (Bioorg Med Chem Lett, 2020)
Values after ≈ are worked out from the molar mass of the structure shown. Active and inactive are the calls of the source. The rule behind the calls is not given here.

How the values were obtained:
Pseudomonas aeruginosa [1] = assay: Potentiation of amoxicillin-induced antibacterial activity against Pseudomonas aeruginosa assessed as fold reduction in amoxicillin MIC at 50 uM after 12 to 24 hrs relative to amoxicillin MIC alone; format: functional; conditions: time hrs 12-24
Escherichia coli [2] = assay: Potentiation of erythromycin-induced antibacterial activity against Escherichia coli assessed as fold reduction in erythromycin MIC at 50 uM after 12 to 24 hrs relative to erythromycin MIC alone; format: functional; conditions: time hrs 12-24
Bacillus subtilis [3] = assay: Potentiation of penicillin G-induced antibacterial activity against Bacillus subtilis assessed as penicillin G MIC at 50 uM after 12 to 24 hrs (reference value: 64 microg/ml); format: functional; conditions: time hrs 12-24
Escherichia coli [4] = assay: Antibacterial activity against Escherichia coli; format: functional, organism-based
Bacillus subtilis [5] = assay: Potentiation of vancomycin-induced antibacterial activity against Bacillus subtilis assessed as fold reduction in vancomycin MIC at 50 uM after 12 to 24 hrs relative to vancomycin MIC alone; format: functional; conditions: time hrs 12-24
Pseudomonas aeruginosa [6] = assay: Potentiation of erythromycin-induced antibacterial activity against Pseudomonas aeruginosa assessed as fold reduction in erythromycin MIC at 50 uM after 12 to 24 hrs relative to erythromycin MIC alone; format: functional; conditions: time hrs 12-24
Bacillus subtilis [7] = assay: Antibacterial activity against Bacillus subtilis; format: functional, organism-based
Pseudomonas aeruginosa [8] = assay: Potentiation of erythromycin-induced antibacterial activity against Pseudomonas aeruginosa assessed as erythromycin MIC at 50 uM after 12 to 24 hrs (reference value: 0.5 microg/ml); format: functional; conditions: time hrs 12-24
Pseudomonas aeruginosa [9] = assay: Potentiation of amoxicillin-induced antibacterial activity against Pseudomonas aeruginosa assessed as amoxicillin MIC at 50 uM after 12 to 24 hrs (reference value: 2 microg/ml); format: functional; conditions: time hrs 12-24
Staphylococcus aureus [10] = assay: Potentiation of erythromycin-induced antibacterial activity against Staphylococcus aureus assessed as erythromycin MIC at 50 uM after 12 to 24 hrs (reference value: 0.5 microg/ml); format: functional; conditions: time hrs 12-24
Pseudomonas aeruginosa [11] = assay: Potentiation of vancomycin-induced antibacterial activity against Pseudomonas aeruginosa assessed as fold reduction in vancomycin MIC at 50 uM after 12 to 24 hrs relative to vancomycin MIC alone; format: functional; conditions: time hrs 12-24
Staphylococcus aureus [12] = assay: Potentiation of amoxicillin-induced antibacterial activity against Staphylococcus aureus assessed as amoxicillin MIC at 50 uM after 12 to 24 hrs (reference value: 128 microg/ml); format: functional; conditions: time hrs 12-24
Escherichia coli [13] = assay: Potentiation of amoxicillin-induced antibacterial activity against Escherichia coli assessed as fold reduction in amoxicillin MIC at 50 uM after 12 to 24 hrs relative to amoxicillin MIC alone; format: functional; conditions: time hrs 12-24
Bacillus subtilis [14] = assay: Potentiation of amoxicillin-induced antibacterial activity against Bacillus subtilis assessed as fold reduction in amoxicillin MIC at 50 uM after 12 to 24 hrs relative to amoxicillin MIC alone; format: functional; conditions: time hrs 12-24
Staphylococcus aureus [15] = assay: Potentiation of amoxicillin-induced antibacterial activity against Staphylococcus aureus assessed as fold reduction in amoxicillin MIC at 50 uM after 12 to 24 hrs relative to amoxicillin MIC alone; format: functional; conditions: time hrs 12-24
Bacillus subtilis [16] = assay: Potentiation of penicillin G-induced antibacterial activity against Bacillus subtilis assessed as fold reduction in penicillin G MIC at 50 uM after 12 to 24 hrs relative to penicillin G MIC alone; format: functional; conditions: time hrs 12-24
Escherichia coli [17] = assay: Potentiation of penicillin G-induced antibacterial activity against Escherichia coli assessed as penicillin G MIC at 50 uM after 12 to 24 hrs (reference value: 64 microg/ml); format: functional; conditions: time hrs 12-24
Bacillus subtilis [18] = assay: Potentiation of amoxicillin-induced antibacterial activity against Bacillus subtilis assessed as amoxicillin MIC at 50 uM after 12 to 24 hrs (reference value: 64 microg/ml); format: functional; conditions: time hrs 12-24
Staphylococcus aureus [19] = assay: Potentiation of penicillin G-induced antibacterial activity against Staphylococcus aureus assessed as penicillin G MIC at 50 uM after 12 to 24 hrs (reference value: […] microg/ml); format: functional; conditions: time hrs 12-24
Pseudomonas aeruginosa [20] = assay: Potentiation of penicillin G-induced antibacterial activity against Pseudomonas aeruginosa assessed as fold reduction in penicillin G MIC at 50 uM after 12 to 24 hrs relative to penicillin G MIC alone; format: functional; conditions: time hrs 12-24
Staphylococcus aureus [21] = assay: Antibacterial activity against Staphylococcus aureus; format: functional, organism-based
Escherichia coli [22] = assay: Potentiation of vancomycin-induced antibacterial activity against Escherichia coli assessed as fold reduction in vancomycin MIC at 50 uM after 12 to 24 hrs relative to vancomycin MIC alone; format: functional; conditions: time hrs 12-24
Pseudomonas aeruginosa [23] = assay: Antibacterial activity against Pseudomonas aeruginosa assessed as cell wall perturbation by XTT assay; format: functional, organism-based
Bacillus subtilis [24] = assay: Potentiation of vancomycin-induced antibacterial activity against Bacillus subtilis assessed as vancomycin MIC at 50 uM after 12 to 24 hrs (reference value: 64 microg/ml); format: functional; conditions: time hrs 12-24
Bacillus subtilis [25] = assay: Potentiation of erythromycin-induced antibacterial activity against Bacillus subtilis assessed as erythromycin MIC at 50 uM after 12 to 24 hrs (reference value: 0.5 microg/ml); format: functional; conditions: time hrs 12-24
Pseudomonas aeruginosa [26] = assay: Potentiation of penicillin G-induced antibacterial activity against Pseudomonas aeruginosa assessed as penicillin G MIC at 50 uM after 12 to 24 hrs (Rvb > 128 microg/ml); format: functional; conditions: time hrs 12-24
Staphylococcus aureus [27] = assay: Potentiation of vancomycin-induced antibacterial activity against Staphylococcus aureus assessed as fold reduction in vancomycin MIC at 50 uM after 12 to 24 hrs relative to vancomycin MIC alone; format: functional; conditions: time hrs 12-24
Staphylococcus aureus [28] = assay: Potentiation of erythromycin-induced antibacterial activity against Staphylococcus aureus assessed as fold reduction in erythromycin MIC at 50 uM after 12 to 24 hrs relative to erythromycin MIC alone; format: functional; conditions: time hrs 12-24
Escherichia coli [29] = assay: Potentiation of erythromycin-induced antibacterial activity against Escherichia coli assessed as erythromycin MIC at 50 uM after 12 to 24 hrs (reference value: 1 microg/ml); format: functional; conditions: time hrs 12-24
Pseudomonas aeruginosa [30] = assay: Antibiofilm activity against Pseudomonas aeruginosa by crystal violet staining based assay; format: functional, organism-based
Pseudomonas aeruginosa [31] = assay: Potentiation of vancomycin-induced antibacterial activity against Pseudomonas aeruginosa assessed as vancomycin MIC at 50 uM after 12 to 24 hrs (reference value: 1 microg/ml); format: functional; conditions: time hrs 12-24
Escherichia coli [32] = assay: Potentiation of penicillin G-induced antibacterial activity against Escherichia coli assessed as fold reduction in penicillin G MIC at 50 uM after 12 to 24 hrs relative to penicillin G MIC alone; format: functional; conditions: time hrs 12-24
Bacillus subtilis [33] = assay: Potentiation of erythromycin-induced antibacterial activity against Bacillus subtilis assessed as fold reduction in erythromycin MIC at 50 uM after 12 to 24 hrs relative to erythromycin MIC alone; format: functional; conditions: time hrs 12-24
Staphylococcus aureus [34] = assay: Potentiation of penicillin G-induced antibacterial activity against Staphylococcus aureus assessed as fold reduction in penicillin G MIC at 50 uM after 12 to 24 hrs relative to penicillin G MIC alone; format: functional; conditions: time hrs 12-24
Escherichia coli [35] = assay: Potentiation of vancomycin-induced antibacterial activity against Escherichia coli assessed as vancomycin MIC at 50 uM after 12 to 24 hrs (reference value: 64 microg/ml); format: functional; conditions: time hrs 12-24
Escherichia coli [36] = assay: Potentiation of amoxicillin-induced antibacterial activity against Escherichia coli assessed as amoxicillin MIC at 50 uM after 12 to 24 hrs (reference value: 4 microg/ml); format: functional; conditions: time hrs 12-24
Staphylococcus aureus [37] = assay: Potentiation of vancomycin-induced antibacterial activity against Staphylococcus aureus assessed as vancomycin MIC at 50 uM after 12 to 24 hrs (reference value: 0.5 microg/ml); format: functional; conditions: time hrs 12-24
Pseudomonas aeruginosa [38] = assay: Antibacterial activity against Pseudomonas aeruginosa; format: functional, organism-based
Pseudomonas aeruginosa [39] = assay: Antibacterial activity against Pseudomonas aeruginosa GKCW120 harboring P6 deletion mutant assessed as growth inhibition incubated for 8 hrs by micro dilution assay; format: functional
Pseudomonas aeruginosa [40] = assay: Antibacterial activity against Pseudomonas aeruginosa GKCW120 harboring P6 deletion mutant assessed as growth inhibition incubated for 24 hrs by micro dilution assay; format: functional
Pseudomonas aeruginosa [41] = assay: Antibacterial activity against Pseudomonas aeruginosa PAO1 assessed as growth inhibition by micro dilution assay; format: functional

CCCc1c(O)cc(CC)oc1=O
Ratio (Pseudomonas aeruginosa [1]): 1 | Ratio (Escherichia coli [2]): 1 | MIC (Bacillus subtilis [3]): 64 µg/mL | IC50 (Escherichia coli [4]): > 100 µg/mL | MIC (Escherichia coli [4]): > 500 µM | Ratio (Bacillus subtilis [5]): 1 | Ratio (Pseudomonas aeruginosa [6]): 1 | IC50 (Bacillus subtilis [7]): > 100 µg/mL | MIC (Bacillus subtilis [7]): > 500 µM | MIC (Pseudomonas aeruginosa [8]): 0.5 µg/mL | MIC (Pseudomonas aeruginosa [9]): 2 µg/mL | MIC (Staphylococcus aureus [10]): 0.5 µg/mL | Ratio (Pseudomonas aeruginosa [11]): 1 | MIC (Staphylococcus aureus [12]): 128 µg/mL | Ratio (Escherichia coli [13]): 1 | Ratio (Bacillus subtilis [14]): 1 | Ratio (Staphylococcus aureus [15]): 1 | Ratio (Bacillus subtilis [16]): 1 | MIC (Escherichia coli [17]): 64 µg/mL | MIC (Bacillus subtilis [18]): 64 µg/mL | MIC (Staphylococcus aureus [19]): 64 µg/mL | Ratio (Pseudomonas aeruginosa [20]): >1 | IC50 (Staphylococcus aureus [21]): > 100 µg/mL | MIC (Staphylococcus aureus [21]): > 500 µM | Ratio (Escherichia coli [22]): 1 | Activity (Pseudomonas aeruginosa [23]): inactive | MIC (Bacillus subtilis [24]): 64 µg/mL | MIC (Bacillus subtilis [25]): 0.5 µg/mL | MIC (Pseudomonas aeruginosa [26]): 128 µg/mL | Ratio (Staphylococcus aureus [27]): 1 | Ratio (Staphylococcus aureus [28]): 1 | MIC (Escherichia coli [29]): 1 µg/mL | Activity (Pseudomonas aeruginosa [30]): inactive | MIC (Pseudomonas aeruginosa [31]): 1 µg/mL | Ratio (Escherichia coli [32]): 1 | Ratio (Bacillus subtilis [33]): 1 | Ratio (Staphylococcus aureus [34]): 1 | MIC (Escherichia coli [35]): 64 µg/mL | MIC (Escherichia coli [36]): 4 µg/mL | MIC (Staphylococcus aureus [37]): 0.5 µg/mL | IC50 (Pseudomonas aeruginosa [38]): > 1000 µg/mL | MIC (Pseudomonas aeruginosa [38]): > 5000 µM

CC1(C)S[C@@H]2[C@H](NC(=O)Cc3ccccc3)C(=O)N2[C@H]1C(=O)O [PENICILLIN G]
MIC (Pseudomonas aeruginosa [39]): 0.5 µg/mL (≈ 1.5 µM) | MIC (Pseudomonas aeruginosa [40]): > 128 µg/mL | MIC (Pseudomonas aeruginosa [41]): > 128 µg/mL

CCC(=O)c1c(O)cc(CC)oc1=O
Ratio (Pseudomonas aeruginosa [1]): 1 | Ratio (Escherichia coli [2]): 1 | MIC (Bacillus subtilis [3]): 64 µg/mL | IC50 (Escherichia coli [4]): > 100 µg/mL | MIC (Escherichia coli [4]): > 500 µM | Ratio (Bacillus subtilis [5]): 1 | Ratio (Pseudomonas aeruginosa [6]): 1 | IC50 (Bacillus subtilis [7]): > 100 µg/mL | MIC (Bacillus subtilis [7]): > 500 µM | MIC (Pseudomonas aeruginosa [8]): 0.5 µg/mL | MIC (Pseudomonas aeruginosa [9]): 2 µg/mL | MIC (Staphylococcus aureus [10]): 0.5 µg/mL | Ratio (Pseudomonas aeruginosa [11]): 1 | MIC (Staphylococcus aureus [12]): 128 µg/mL | Ratio (Escherichia coli [13]): 1 | Ratio (Bacillus subtilis [14]): 1 | Ratio (Staphylococcus aureus [15]): 1 | Ratio (Bacillus subtilis [16]): 1 | MIC (Escherichia coli [17]): 64 µg/mL | MIC (Bacillus subtilis [18]): 64 µg/mL | MIC (Staphylococcus aureus [19]): 64 µg/mL | Ratio (Pseudomonas aeruginosa [20]): >256 | IC50 (Staphylococcus aureus [21]): > 100 µg/mL | MIC (Staphylococcus aureus [21]): > 500 µM | Ratio (Escherichia coli [22]): 1 | Activity (Pseudomonas aeruginosa [23]): inactive | MIC (Bacillus subtilis [24]): 64 µg/mL | MIC (Bacillus subtilis [25]): 0.5 µg/mL | MIC (Pseudomonas aeruginosa [26]): 0.5 µg/mL | Ratio (Staphylococcus aureus [27]): 1 | Ratio (Staphylococcus aureus [28]): 1 | MIC (Escherichia coli [29]): 1 µg/mL | Activity (Pseudomonas aeruginosa [30]): inactive | MIC (Pseudomonas aeruginosa [31]): 1 µg/mL | Ratio (Escherichia coli [32]): 1 | Ratio (Bacillus subtilis [33]): 1 | Ratio (Staphylococcus aureus [34]): 1 | MIC (Escherichia coli [35]): 64 µg/mL | MIC (Escherichia coli [36]): 4 µg/mL | MIC (Staphylococcus aureus [37]): 0.5 µg/mL | IC50 (Pseudomonas aeruginosa [38]): > 1000 µg/mL | MIC (Pseudomonas aeruginosa [38]): > 5000 µM
